# Experimental data: patent US12391701B2, “Chromene-based compounds, methods and uses thereof” (University of Minho, priority 2019, dated 2025)
# Tested on: C57BI/6 mice
# Experiment: Toxicity in C57BI/6 mice, 2nd trial
# Assay type: in vivo
# Conditions: 3 mg/Kg i.p. daily for 7 days
# Procedure: In an embodiment, the effects of compound treatment on C57BI/6 mice—2nd trial was analysed. […] FIG. 16A is a schematic representation of the experiment timeline. 3-month old female and male animals were used (n=6/group/gender) and injected either with MC408 3 mg/Kg or vehicle (saline, Tween80 and methylcellulose) (i.p.) daily for 7 days. In this trial the number of animals per group was increased and the experiment was conceived to collect blood before and after the treatment. […] Data is presented as mean±SE.
structure (smiles),measurement,value
"COc1cccc2c1Oc1nc(-c3ccc(Br)cc3)[nH]c1C2 [MC408, 2-(4-bromophenyl)-5-methoxy-3,9-dihydrochromeno[2,3-d]imidazoles]",body weight,no differences were found
